From US12410160B2 (Gilead Sciences, Inc., priority 2021, dated 2025)
Where two headings read alike, the source gives them in different places.

Tests used:
[1] = target: KHK-C expressed in NRK-52E cells (Homo sapiens (Human), UniProt P50053); test: KHK-C Cell-based Assay (EC50), NRK CTG, fructose-mediated ATP-depletion
HepG2 cells = test: F1P Cell-Based Assay (EC50), 13C6-fructose-1-phosphate in HepG2 cells (cell culture medium or 50% human plasma); details: Homo sapiens
human OATP1B1 = human OATP1B1 (Homo sapiens (Human), UniProt Q9Y6L6); test: In Vitro Inhibition Assessment with Human OATP1B1 Transporter; type: in vitro ADME; details: HEK293-OATP1B1 cells, probe substrate pravastatin
Protocol: In Vitro Inhibition Assessment with Human OATP1B1 and OATP1B3 Transporters Assay Protocol
The purpose of this assay was to assess the inhibition potential of test article (TA) toward human OATP1B1 and OATP1B3 transporters in vitro using cell lines transfected with the individual transporters. The assays used clinically relevant probe substrate pravastatin and a known positive control inhibitor rifampicin. HEK293 mock, HEK293-OATP1B1, and HEK293-OATP1B3 transfected cells were seeded onto CellCoat Poly-D-Lysine coated 96 well black cell culture plates with clear bottoms (Greiner bio-one, Cat. #655946) at a density of 70,000 cells/well and cultured to confluency overnight. Seeding media used was Dulbecco's Modification of Eagle's Medium (DMEM—with GlutaMAX high glucose; Gibco, Cat #: 10569-010) supplemented with 10% fetal bovine serum, 0.1 mM non-essential amino acids, 100 U/mL penicillin, and 100 μg/mL streptomycin. On assay day, media were removed from the assay plates and cells were washed with Hanks' Balanced Salt Solution (HBSS Buffer) (Corning, Cat. #21-023-CV). All TAs and reference inhibitor were serially diluted in DMSO to create spiking solutions at concentrations of 250-fold of final assay concentrations (final DMSO content 0.4%). Cells were preincubated with HBSS buffer containing test compounds for 15 minutes. After the removal of HBSS buffer, dose solution containing TA or reference inhibitor and probe substrate were added to the HEK293-OATP1B1, HEK-293-OATP1B3 and its associated mock cell plate, respectively. The co-incubation period of TAs with the corresponding probe substrate for all plates was 5 minutes. An aliquot of the dose solution was removed from the HEK293 mock cell plates and analysed for dose recovery. Cells were then washed three times with ice cold HBSS buffer and then immediately extracted with methanol:water (70:30 v:v) containing internal standard labetolol (30 nM). The supernatants were evaporated to dryness on injection plates and reconstituted in 80% water containing 20% acetonitrile and 0.1% formic acid for analysis by liquid chromatography with tandem mass spectrometry (LC-MS-MS).
Fractional transport activities were calculated from the equation: Activity %=(A−B)/(C−D)×100
• A: translocated amount of substrate in the presence of TA on transfected cells • B: translocated amount of substrate in the presence of TA on Mock cells • C: translocated amount of substrate in the presence of solvent on transfected cells • D: translocated amount of substrate in the presence of solvent on Mock cells
GraphPad Prism 7.0 (GraphPad Software Inc., San Diego, CA) was used for curve fitting and determination of reaction parameters. In uptake transporter inhibition assays, the IC50 (μM) was calculated, where applicable. IC50 was defined as the concentration of TA required to inhibit maximal activity by 50%.

human KHK-C = human KHK-C (Homo sapiens (Human), UniProt P50053); test: KHK Biochemical Assay (IC50), ADP-Glo, KHK-C; details: average of at least two separate assays
How it was run: (§1)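 His-tagged enzyme expressed in BL21 (DE3), Ni-NTA purified. Compounds, serially diluted 1:3 in DMSO, pre-incubated 30 min with enzyme in 50 mM Hepes pH 7.4, 140 mM KCl, 5 mM MgCl2, 0.01% Triton-X, then ATP and fructose added; 4 h at room temperature. ADP formation read by ADP-Glo luminescence.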

human KHK-A = human KHK-A (Homo sapiens (Human), UniProt P50053); test: KHK Biochemical Assay (IC50), ADP-Glo, KHK-A; details: average of at least two separate assays
How it was run: as §1

[2] = HepG2, HepG2 cells, 50% human plasma, read-out: F1P 50% HP EC50
[3] = HepG2, read-out: F1P 10% FBS EC50, HepG2 cells, cell culture medium (10% FBS)

Chain of human KHK-A (P50053 other isoform, or with tags, fused parts or gaps): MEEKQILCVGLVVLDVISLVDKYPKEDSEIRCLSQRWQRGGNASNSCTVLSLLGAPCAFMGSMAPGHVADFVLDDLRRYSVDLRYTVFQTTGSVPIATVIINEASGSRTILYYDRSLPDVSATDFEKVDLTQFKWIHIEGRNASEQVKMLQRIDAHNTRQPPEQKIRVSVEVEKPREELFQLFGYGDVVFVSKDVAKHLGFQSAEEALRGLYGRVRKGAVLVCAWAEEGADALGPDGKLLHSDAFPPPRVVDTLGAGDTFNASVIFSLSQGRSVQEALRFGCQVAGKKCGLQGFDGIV
Chain of human KHK-C (P50053 whole entry): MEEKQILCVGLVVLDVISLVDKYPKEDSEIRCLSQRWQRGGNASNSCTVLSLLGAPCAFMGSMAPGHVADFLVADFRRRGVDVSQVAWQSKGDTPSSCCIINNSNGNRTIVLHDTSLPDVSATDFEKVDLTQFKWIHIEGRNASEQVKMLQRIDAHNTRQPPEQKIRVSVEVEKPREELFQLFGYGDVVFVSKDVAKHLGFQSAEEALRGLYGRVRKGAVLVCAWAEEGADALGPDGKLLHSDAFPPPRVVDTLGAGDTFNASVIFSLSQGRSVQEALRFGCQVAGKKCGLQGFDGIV
Chain of KHK-C expressed in NRK-52E cells (P50053 whole entry): as above
Chain of human OATP1B1 (Q9Y6L6 whole entry): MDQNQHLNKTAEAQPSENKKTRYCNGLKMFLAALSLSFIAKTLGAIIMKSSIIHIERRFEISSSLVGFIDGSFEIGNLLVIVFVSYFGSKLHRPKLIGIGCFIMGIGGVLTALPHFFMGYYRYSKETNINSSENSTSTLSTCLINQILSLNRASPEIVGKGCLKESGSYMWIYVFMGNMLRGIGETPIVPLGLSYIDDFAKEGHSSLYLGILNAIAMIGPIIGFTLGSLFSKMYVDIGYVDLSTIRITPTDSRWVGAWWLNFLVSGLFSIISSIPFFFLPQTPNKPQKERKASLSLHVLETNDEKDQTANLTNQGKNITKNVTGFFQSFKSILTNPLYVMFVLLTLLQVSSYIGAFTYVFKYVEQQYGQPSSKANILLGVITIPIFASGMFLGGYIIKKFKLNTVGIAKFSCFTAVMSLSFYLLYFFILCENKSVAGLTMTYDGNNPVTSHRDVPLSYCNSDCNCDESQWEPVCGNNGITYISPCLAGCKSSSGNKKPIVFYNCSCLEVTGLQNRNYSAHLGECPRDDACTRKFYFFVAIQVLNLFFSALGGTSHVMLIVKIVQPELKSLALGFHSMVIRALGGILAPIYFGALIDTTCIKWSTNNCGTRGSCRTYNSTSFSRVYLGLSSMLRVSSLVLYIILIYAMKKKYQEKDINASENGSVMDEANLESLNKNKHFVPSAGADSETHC

Work on C[C@H]1[C@H](O)CN1c1nc(-c2ccc3c(c2)OCC3NS(C)(=O)=O)c2c(n1)C(F)(F)CC2 (mixture of isomers) [Example 465] yielded an EC50 [1] of 14.9 nM, an EC50 (HepG2 cells; [2]) of 33.5 nM and an EC50 (HepG2 cells; [3]) of 15.4 nM. It also gave an IC50 (human OATP1B1) of 4580 nM and an IC50 (human KHK-C) of 1.4 nM.

C[C@H]1CCN1c1nc2c(c(-c3cccc(C(=O)O)c3)n1)CCC2 [Example 9, (S)-3-(2-(2-methylazetidin-1-yl)-6,7-dihydro-5H-cyclopenta[d]pyrimidin-4-yl)benzoic acid] gave an EC50 [1] of 611 nM, an IC50 (human OATP1B1) of 448 nM and an IC50 (human KHK-C; ADP-Glo) of 68.6 nM. For the same compound, the IC50 (human KHK-A; ADP-Glo) was 48.9 nM.

In the case of C[C@H]1[C@H](O)CN1c1nc2c(c(-c3ccc(C4(N)COC4)cc3)n1)CCC2 [Example 159, (2S,3R)-1-(4-(4-(3-aminooxetan-3-yl)phenyl)-6,7-dihydro-5H-cyclopenta[d]pyrimidin-2-yl)-2-methylazetidin-3-ol], the EC50 [1] is reported as 36.9 nM, the IC50 (human OATP1B1) is reported as 7400 nM and the IC50 (human KHK-C; ADP-Glo) is reported as 10.1 nM. It also gave an IC50 (human KHK-A; ADP-Glo) of 25.6 nM.

CCOc1cc(-c2nc(N3C[C@@H](O)[C@@H]3C)nc3c2CCC3(F)F)ccc1C(N)=O [Example 170, 4-(7,7-difluoro-2-((2S,3R)-3-hydroxy-2-methylazetidin-1-yl)-6,7-dihydro-5H-cyclopenta[d]pyrimidin-4-yl)-2-ethoxybenzamide] showed an EC50 [1] of 46.1 nM, an EC50 (HepG2 cells; [2]) of 80.3 nM and an EC50 (HepG2 cells; [3]) of 30.2 nM. The IC50 (human OATP1B1) was 892 nM and the IC50 (human KHK-C; ADP-Glo) was 11.2 nM.

With COc1cc(-c2nc(N3C[C@@H](O)[C@@H]3C)nc3c2CCC3(F)F)ccc1C(N)=O [Example 177, 4-(7,7-difluoro-2-((2S,3R)-3-hydroxy-2-methylazetidin-1-yl)-6,7-dihydro-5H-cyclopenta[d]pyrimidin-4-yl)-2-methoxybenzamide] the EC50 [1] was 88.6 nM, the EC50 (HepG2 cells; [2]) was 66.6 nM and the EC50 (HepG2 cells; [3]) was 28.4 nM. For the same compound, the IC50 (human OATP1B1) was 3710 nM and the IC50 (human KHK-C; ADP-Glo) was 14.3 nM.

Compound C[C@H]1[C@H](O)CN1c1nc(-c2ccc3c(c2)CCCNC3=O)c2c(n1)C(F)(F)CC2 [Example 178, 7-(7,7-difluoro-2-((2S,3R)-3-hydroxy-2-methylazetidin-1-yl)-6,7-dihydro-5H-cyclopenta[d]pyrimidin-4-yl)-2,3,4,5-tetrahydro-1H-benzo[c]azepin-1-one] has an EC50 [1] of 27.4 nM, an EC50 (HepG2 cells; [2]) of 41 nM and an EC50 (HepG2 cells; [3]) of 22.1 nM. For the same compound, the IC50 (human OATP1B1) was 1350 nM and the IC50 (human KHK-C; ADP-Glo) was 5.4 nM.

In the case of C[C@H]1[C@H](O)CN1c1nc2c(c(-c3cccc(CNS(C)(=O)=O)c3)n1)CCC2 [Example 285], the EC50 [1] is reported as 82.4 nM, the IC50 (human OATP1B1) is reported as 1260 nM and the IC50 (human KHK-C; ADP-Glo) is reported as 47.8 nM. For the same compound, the IC50 (human KHK-A; ADP-Glo) was 57.2 nM.

In the case of C[C@H]1CCN1c1nc(-c2ccc3c(=O)[nH]ccc3c2)c2c(n1)C(F)(F)CC2 [Example 317, (S)-6-(7,7-difluoro-2-(2-methylazetidin-1-yl)-6,7-dihydro-5H-cyclopenta[d]pyrimidin-4-yl)isoquinolin-1(2H)-one], the EC50 [1] is reported as 3.5 nM, the IC50 (human OATP1B1) is reported as 284 nM and the IC50 (human KHK-C; ADP-Glo) is reported as 1.7 nM. For the same compound, the IC50 (human KHK-A; ADP-Glo) was 4.9 nM.

Compound C[C@H]1[C@H](O)CN1c1nc(-c2cccc(S(N)(=O)=O)c2)c2c(n1)C(F)(F)CC2 [Example 322, 3-(7,7-difluoro-2-((2S,3R)-3-hydroxy-2-methylazetidin-1-yl)-6,7-dihydro-5H-cyclopenta[d]pyrimidin-4-yl)benzenesulfonamide] has an EC50 [1] of 76.4 nM, an IC50 (human OATP1B1) of 13300 nM and an IC50 (human KHK-C; ADP-Glo) of 7.4 nM. For the same compound, the IC50 (human KHK-A; ADP-Glo) was 5.1 nM.

Compound C[C@H]1[C@H](O)CN1c1nc2c(c(-c3ccc4c(=O)[nH]ccc4c3)n1)CCC2 [Example 373, 6-[2-[(2S,3R)-3-hydroxy-2-methyl-azetidin-1-yl]-6,7-dihydro-5H-cyclopenta[d]pyrimidin-4-yl]-2H-isoquinolin-1-one] has an EC50 [1] of 53.8 nM, an IC50 (human OATP1B1) of 379 nM and an IC50 (human KHK-C; ADP-Glo) of 20.4 nM. The IC50 (human KHK-A; ADP-Glo) was 54 nM.

C[C@H]1CCN1c1nc2c(c(-c3cc(F)c4c(=O)[nH]ccc4c3)n1)CCC2 [Example 382, 8-fluoro-6-[2-[(2S)-2-methylazetidin-1-yl]-6,7-dihydro-5H-cyclopenta[d]pyrimidin-4-yl]-2H-isoquinolin-1-one] was tested, and the EC50 [1] was 13.8 nM, the IC50 (human OATP1B1) was 149 nM and the IC50 (human KHK-C; ADP-Glo) was 6.3 nM. It also gave an IC50 (human KHK-A; ADP-Glo) of 16.1 nM.

C[C@H]1CCN1c1nc2c(c(-c3ccc4c(=O)[nH]cnc4c3)n1)CCC2 [Example 383, 7-[2-[(2S)-2-methylazetidin-1-yl]-6,7-dihydro-5H-cyclopenta[d]pyrimidin-4-yl]-3H-quinazolin-4-one] gave an EC50 [1] of 7.3 nM, an IC50 (human OATP1B1) of 194 nM and an IC50 (human KHK-C; ADP-Glo) of 4.4 nM. The IC50 (human KHK-A; ADP-Glo) was 10.8 nM.

C[C@H]1[C@H](O)CN1c1nc2c(c(-c3ccc4c(N)nccc4c3)n1)CCC2 [Example 385, (2S,3R)-1-[4-(1-amino-6-isoquinolyl)-6,7-dihydro-5H-cyclopenta[d]pyrimidin-2-yl]-2-methyl-azetidin-3-ol] showed an EC50 [1] of 4.2 nM, an EC50 (HepG2 cells; [2]) of 11.1 nM and an EC50 (HepG2 cells; [3]) of 6.5 nM. The IC50 (human OATP1B1) was 687 nM.

C[C@H]1CCN1c1nc2c(c(-c3cc4cc[nH]c(=O)c4s3)n1)CCC2 [Example 392, 2-[2-[(2S)-2-methylazetidin-1-yl]-6,7-dihydro-5H-cyclopenta[d]pyrimidin-4-yl]-6H-thieno[2,3-c]pyridin-7-one] was tested, and the EC50 [1] was 3 nM, the EC50 (HepG2 cells; [2]) was 85.1 nM and the EC50 (HepG2 cells; [3]) was 10.9 nM. The IC50 (human OATP1B1) was 100 nM and the IC50 (human KHK-C; ADP-Glo) was 1.5 nM.

C[C@H]1CCN1c1nc2c(c(-c3ccc4c(=O)[nH]ncc4c3)n1)CCC2 [Example 427, 6-[2-[(2S)-2-methylazetidin-1-yl]-6,7-dihydro-5H-cyclopenta[d]pyrimidin-4-yl]-2H-phthalazin-1-one] was tested, and the EC50 [1] was 40.2 nM, the IC50 (human OATP1B1) was 210 nM and the IC50 (human KHK-C) was 30.2 nM. It also gave an IC50 (human KHK-A) of 17.8 nM.

Work on C[C@H]1CCN1c1nc2c(c(-c3ccc4c(=O)[nH]cc(S(N)(=O)=O)c4c3)n1)CCC2 [Example 433, 6-[2-[(2S)-2-methylazetidin-1-yl]-6,7-dihydro-5H-cyclopenta[d]pyrimidin-4-yl]-1-oxo-2H-isoquinoline-4-sulfonamide] yielded an EC50 [1] of 484 nM, an IC50 (human OATP1B1) of 967 nM and an IC50 (human KHK-C) of 6.3 nM. The IC50 (human KHK-A) was 27.2 nM.

Compound C[C@H]1[C@H](O)CN1c1nc(-c2cccc(CN(C)S(C)(=O)=O)c2)c2c(n1)C(F)(F)CC2 [Example 462, N-(3-(7,7-difluoro-2-((2S,3R)-3-hydroxy-2-methylazetidin-1-yl)-6,7-dihydro-5H-cyclopenta[d]pyrimidin-4-yl)benzyl)-N-methylmethanesulfonamide] has an EC50 [1] of 9.2 nM, an EC50 (HepG2 cells; [2]) of 33.7 nM and an EC50 (HepG2 cells; [3]) of 9.6 nM. It also gave an IC50 (human OATP1B1) of 2760 nM and an IC50 (human KHK-C) of 3.2 nM.

For C[C@H]1CCN1c1nc2c(c(-c3ccc4nc(N)[nH]c(=O)c4c3)n1)CCC2 [Example 463, (S)-2-amino-6-(2-(2-methylazetidin-1-yl)-6,7-dihydro-5H-cyclopenta[d]pyrimidin-4-yl)quinazolin-4(3H)-one], the EC50 [1] was 150 nM, the EC50 (HepG2 cells; [2]) was 46.3 nM and the EC50 (HepG2 cells; [3]) was 7.3 nM. The IC50 (human OATP1B1) was 1360 nM and the IC50 (human KHK-C) was 3.9 nM.

C[C@H]1[C@H](O)CN1c1nc(-c2cccc(S(C)(=N)=O)c2)c2c(n1)C(F)(F)CC2 (some centres unmarked) [Example 464] showed an EC50 [1] of 55 nM, an EC50 (HepG2 cells; [2]) of 55.1 nM and an EC50 (HepG2 cells; [3]) of 45.8 nM. The IC50 (human OATP1B1) was > 40000 nM and the IC50 (human KHK-C) was 15.7 nM.

In the case of C[C@H]1CCN1c1nc(-c2ccc3c(c2)CCNC3)c2c(n1)C(F)(F)CC2 [Example 642, 6-[7,7-difluoro-2-[(2S)-2-methylazetidin-1-yl]-5,6-dihydrocyclopenta[d]pyrimidin-4-yl]-1,2,3,4-tetrahydroisoquinoline], the EC50 [1] is reported as 4.1 nM, the EC50 (HepG2 cells; [2]) is reported as 2.4 nM and the EC50 (HepG2 cells; [3]) is reported as 1.1 nM. The IC50 (human OATP1B1) was 22500 nM and the IC50 (human KHK-C) was 0.9 nM.
